Test results published in ChEMBL document CHEMBL1201862, “PubChem BioAssay data set” (2004).
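Dose response: 5 concentrations. Exposure: 48 h. Format: 96-well plates. Endpoint: linear interpolation; highest concentration if not reached. GI50 marks 50% less growth.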 Calls of active or inactive are those of the source. No stated cut-off is given here; in the data, active = GI50 up to about 1.1 µM and inactive = higher.

Legend:
Assay in all cases: NCI anticancer screen, dose series, 48 h
Hs-578T = system: Hs-578T
786-0 = system: 786-0
NCI-H23 = system: NCI-H23
NCI-H522 = system: NCI-H522
HT-29 = system: HT-29
RPMI-8226 = system: RPMI-8226
PC-3 = system: PC-3
LOX IMVI = system: LOX IMVI
OVCAR-3 = system: OVCAR-3
SN12C = system: SN12C
IGROV-1 = system: IGROV-1
SK-MEL-28 = system: SK-MEL-28
SF-268 = system: SF-268
SF-295 = system: SF-295
HCT-116 = system: HCT-116
UACC-62 = system: UACC-62
NCI/ADR-RES = system: NCI/ADR-RES
A498 = system: A498

Measured: GI50

O=C1c2cscc2C(=O)c2c(OCc3ccccc3)ccc(OCc3ccccc3)c21
inactive: Hs-578T > 100 µM | 786-0 58.2 µM | NCI-H23 > 100 µM | NCI-H522 > 100 µM | HT-29 58.1 µM | RPMI-8226 > 100 µM | PC-3 78.5 µM | LOX IMVI 97.9 µM | OVCAR-3 > 100 µM | SN12C > 100 µM | IGROV-1 83.2 µM | SK-MEL-28 > 100 µM | SF-268 > 100 µM | SF-295 > 100 µM | HCT-116 91.6 µM | UACC-62 > 100 µM | NCI/ADR-RES > 100 µM

CC(C)N(C(C)C)S(=O)(=O)CC12CCC(C/C1=N\O)C2 (stereo not drawn)
inactive: Hs-578T > 100 µM | 786-0 > 100 µM | NCI-H23 > 100 µM | NCI-H522 > 100 µM | HT-29 > 100 µM | PC-3 > 100 µM | LOX IMVI > 100 µM | OVCAR-3 > 100 µM | SN12C > 100 µM | IGROV-1 > 100 µM | SK-MEL-28 > 100 µM | SF-268 > 100 µM | SF-295 > 100 µM | HCT-116 > 100 µM | UACC-62 > 100 µM | NCI/ADR-RES > 100 µM

O=C(/C=C/c1ccccc1)CCC1C(=O)NC(=S)NC1=O
inactive: Hs-578T > 100 µM | 786-0 > 100 µM | NCI-H23 > 100 µM | PC-3 > 100 µM | LOX IMVI > 100 µM | OVCAR-3 > 100 µM | SN12C > 100 µM | SK-MEL-28 > 100 µM | SF-268 > 100 µM | SF-295 > 100 µM | HCT-116 > 100 µM | UACC-62 > 100 µM | A498 > 100 µM | NCI/ADR-RES > 100 µM

CCCCCCCCCCCCCCCCNc1ccc2c(c1)OCCOCCOCCOCCO2
inactive: Hs-578T 2.82 µM | 786-0 3.64 µM | NCI-H23 3.62 µM | NCI-H522 2.33 µM | HT-29 2.75 µM | RPMI-8226 1.67 µM | PC-3 2.2 µM | LOX IMVI 2.24 µM | OVCAR-3 2.71 µM | SN12C 2.92 µM | IGROV-1 2.91 µM | SK-MEL-28 6.28 µM | SF-268 3.76 µM | SF-295 2.33 µM | HCT-116 3.04 µM | UACC-62 2.97 µM | NCI/ADR-RES 2.37 µM

Cc1c(C)c2c(c(N)c1C#N)C(=O)N(Cc1ccc(S(N)(=O)=O)cc1)C2=O
inactive: Hs-578T > 46.3 µM | 786-0 16.8 µM | NCI-H23 18.9 µM | HT-29 > 100 µM | RPMI-8226 > 100 µM | PC-3 > 64 µM | LOX IMVI 64.6 µM | OVCAR-3 > 41.5 µM | SN12C > 53.8 µM | IGROV-1 > 38.4 µM | SK-MEL-28 > 100 µM | SF-268 16.5 µM | SF-295 21.5 µM | HCT-116 32.9 µM | UACC-62 > 100 µM | A498 27.9 µM | NCI/ADR-RES > 57.9 µM

N#CC1C=Cc2ccccc2N1C(=O)Oc1ccccc1 (stereo not drawn)
inactive: Hs-578T 60 µM | 786-0 56.5 µM | NCI-H23 58.9 µM | NCI-H522 22 µM | HT-29 44.3 µM | RPMI-8226 21.3 µM | PC-3 52.1 µM | LOX IMVI 39.9 µM | SN12C 45.9 µM | IGROV-1 68.2 µM | SK-MEL-28 > 100 µM | SF-268 55.1 µM | HCT-116 38.7 µM | UACC-62 52.7 µM | A498 33.1 µM | NCI/ADR-RES 55.5 µM

O=C(Nn1c(-c2ccccc2)nc2ccccc2c1=O)c1ccc(O)cc1
inactive: Hs-578T > 100 µM | 786-0 > 100 µM | NCI-H23 > 100 µM | NCI-H522 > 100 µM | HT-29 > 100 µM | RPMI-8226 > 100 µM | PC-3 > 100 µM | OVCAR-3 > 100 µM | SN12C > 100 µM | IGROV-1 > 100 µM | SK-MEL-28 > 100 µM | SF-268 > 100 µM | SF-295 > 100 µM | HCT-116 > 100 µM | UACC-62 > 100 µM | A498 > 100 µM | NCI/ADR-RES > 100 µM

N#CCC(=O)Nn1c(CC#N)nnc1Cc1ccccc1
inactive: Hs-578T > 100 µM | 786-0 > 100 µM | NCI-H23 > 100 µM | NCI-H522 > 100 µM | HT-29 > 100 µM | RPMI-8226 > 100 µM | PC-3 > 100 µM | OVCAR-3 > 100 µM | SN12C > 10 µM | IGROV-1 > 100 µM | SK-MEL-28 > 100 µM | SF-268 > 100 µM | SF-295 > 100 µM | HCT-116 > 100 µM | UACC-62 > 100 µM | NCI/ADR-RES > 100 µM

CN1CCc2c(sc3nc(Nc4ccccc4)n(N)c(=O)c23)C1
inactive: Hs-578T > 100 µM | 786-0 > 100 µM | NCI-H23 > 100 µM | HT-29 43.8 µM | RPMI-8226 83 µM | PC-3 > 100 µM | OVCAR-3 > 100 µM | SN12C > 100 µM | IGROV-1 > 100 µM | SF-268 > 100 µM | SF-295 63.1 µM | HCT-116 72.3 µM | UACC-62 38.4 µM | A498 > 100 µM | NCI/ADR-RES > 100 µM

CCOC(=O)C1C[C@H]2CO[C@H](c3ccccc3)N2C1=O (stereo partly drawn)
inactive: Hs-578T > 100 µM | 786-0 > 100 µM | NCI-H23 > 100 µM | NCI-H522 > 100 µM | HT-29 > 100 µM | RPMI-8226 > 100 µM | PC-3 > 100 µM | LOX IMVI > 100 µM | OVCAR-3 > 100 µM | SN12C > 100 µM | IGROV-1 > 100 µM | SK-MEL-28 > 100 µM | SF-268 > 100 µM | SF-295 > 100 µM | HCT-116 > 100 µM | UACC-62 > 100 µM | NCI/ADR-RES > 100 µM

O=C1/C(=C/c2ccc([N+](=O)[O-])cc2)CCCc2ccccc21
inactive: Hs-578T 25.8 µM | 786-0 > 100 µM | NCI-H23 > 100 µM | NCI-H522 > 100 µM | HT-29 > 100 µM | RPMI-8226 > 100 µM | PC-3 > 100 µM | LOX IMVI > 100 µM | OVCAR-3 > 100 µM | SN12C > 100 µM | IGROV-1 > 100 µM | SK-MEL-28 > 100 µM | SF-268 30.4 µM | SF-295 63.5 µM | HCT-116 > 100 µM | UACC-62 91 µM | NCI/ADR-RES > 100 µM

O=C1CC(c2ccccc2Cl)Oc2ccccc21 (stereo not drawn)
inactive: Hs-578T 26.3 µM | 786-0 29 µM | HT-29 10.8 µM | RPMI-8226 17.5 µM | PC-3 31.3 µM | LOX IMVI 40.4 µM | IGROV-1 21.4 µM | SK-MEL-28 > 100 µM | SF-268 37.2 µM | SF-295 40.6 µM | HCT-116 45 µM | UACC-62 45.3 µM | A498 > 100 µM | NCI/ADR-RES 13.1 µM
